Measurements: ChEMBL document CHEMBL1151141, “Antineoplastic agents, 162. Zephyranthes candida” (1990)
Converted amounts (≈) assume the structure as drawn.

Test system: P388
Assay: Cytotoxicity against mouse P388 cells
Type: functional
Conditions: read-out: ED50 (the source's name)

For `CC(=O)Oc1c2c(cc3c1C(=O)N[C@H]1[C@H](OC(C)=O)[C@H](OC(C)=O)[C@@H](OC(C)=O)C[C@H]31)OCO2`, the EC50 was 3.2 ng/mL (≈ 0.0067 µM).
`O=C1N[C@H]2[C@H](O)[C@H](O)[C@@H](O)C[C@@H]2c2cc3c(c(O)c21)OCO3` was tested, and the EC50 was 3.2 ng/mL (≈ 0.0103 µM).
In the case of `O=C1N[C@H]2[C@H](O)[C@H](O)[C@@H](O)C[C@H]2c2cc3c(c(O)c21)OCO3`, the EC50 is reported as 24 ng/mL (≈ 0.0776 µM).
